# Assay results taken from the NIST ThermoML archive (doi:10.1021/je800088e).
# Several values for one entry are separate records, joined by “and”; a condition that tells them apart may be missing. Identical values can stand only once. Numbers after ± are expanded uncertainties.
# Settings: 364.52 K; Liquid; Closed cell (Static) method
row,Structure (SMILES),vapor or sublimation pressure
1,C/C=C\C [(Z)-2-butene],1190.5 ± 5.3 kPa and 1189.6 ± 5.2 kPa
2,CO [methanol],267.3 ± 1.4 kPa
3,CC(C)(C)O [2-methylpropan-2-ol],143 ± 1 kPa

# Now from value to compound:
row,vapor or sublimation pressure,Structure (SMILES)
1,143.9 ± 1 kPa,CC(C)O [propan-2-ol]
2,74 ± 0.9 kPa,CCC(C)O (stereo unspecified) [butan-2-ol]

# Same assay, conditions: 364.53 K; Liquid; Closed cell (Static) method
row,vapor or sublimation pressure,Structure (SMILES)
1,1190.7 ± 5.2 kPa,C/C=C\C [(Z)-2-butene]
